Laboratory results published in patent US20250289837A1, “MITOCHONDRIOTROPIC HETEROARYL BENZAMIDE POTASSIUM CHANNEL KV1.3 INHIBITORS” (UNIVERZA V LJUBLJANI, priority 2022, published 2025).

Experiments:
[1] = test system: pancreatic cancer cell line Colo 357; test: Cytotoxicity in conventional 2D cultures, Cytotox green, Incucyte live cell imaging; type: cell-based; details: 24 hours of treatment, FIG. 1
Procedure: FIG. 1. Cytotoxicity of the indicated compounds. Cells plated on 96-well plates were incubated in the presence of 50 μM of the indicated compounds and fluorescence of the dead-cell marker Cytotox green was monitored over time. In the Figure, fluorescence values after 24 h are reported normalized to the value obtained in the presence of DMSO. […] The symbols indicate biological replicates (with three technical replicates each).
(§1) To test the activity of the compounds on biological systems, we chose the pancreatic cancer cell line Colo 357, which expresses Kv1.3 and is sensitive to cell-permeant Kv1.3 inhibitors (Zaccagnino et al., Oncotarget 8, 38276-38293, 2017). Growth, cell viability and apoptosis were all determined by high content imaging in a Incucyte (Sartorius) live cell imaging device. Images were taken every hour for several days after addition of the compounds dissolved in DMSO (time 0) and the corresponding indicators, CytotoxGreen or CytotoxRed for cytotoxicity and the green Caspase 3/7 activity reporter for apoptosis.
The first screening for cytotoxicity was performed on conventional 2D cultures (FIG. 1).

[2] = test system: pancreatic cancer cell line Colo 357; test: Apoptosis in 2D culture, caspase 3/7 activity reporter; type: cell-based, human; details: 24 h incubation, FIG. 2; for Apoptosis induction (caspases 3/7 activation): already at 5 μM
Procedure: FIG. 2. Levels of apoptosis observed in the presence of the indicated compounds after 24 hours incubation. Apoptosis was measured as activation of the executor caspases 3/7, using a fluorescent indicator. The values were normalized against the apoptosis level observed in the presence of the solvent (DMSO). The symbols indicate biological replicates (with three technical replicates each).
as §1
The toxic effect of both compounds was induced through apoptosis, as expected from mitoKv1.3 inhibitors Urbani, A., et al., Front Cell Dev Biol 8, 620081, 2021). FIG. 2 represents apoptosis induction after 24 h incubation in the presence of compound 2 and 8 at the indicated concentrations.

Colo 357 tumor spheroids [3] = test: Cytotoxicity on tumor spheroids (3-D cultures), Cytotox green; type: cell-based, human; details: concentrations as low as 5 μM, 48 h treatment, FIG. 3
Procedure: FIG. 3. Cytotoxicity of the indicated compounds on tumor spheroids. Fluorescence of the dead-cell marker Cytotox green was monitored over time. In the Figure, fluorescence values after 48 h in the presence of the indicated concentration of the compound are reported normalized to the value obtained in the presence of DMSO. The symbols indicate biological replicates (with three technical replicates each).
as §1
To obtain information on the effect of the compounds in a model more similar to the situation in vivo, the effects of 2 and 8 were also studied in tumor spheroids. […] Cytotoxicity was determined as in the conventional 2D cultures but after 48 h treatment instead of 24 h, because the effects needed longer time to develop.

Colo 357 tumor spheroids [4] = test: Apoptosis in tumor spheroids (3D culture), caspase 3/7 reporter; type: cell-based, human; details: 25 μM, FIG. 6
Procedure: FIG. 4. Levels of apoptosis observed in the presence of the indicated compounds during 48 h of treatment. Images were acquired every hour. Apoptosis was measured as activation of the executor caspases 3/7, using a fluorescent indicator. Mean±SEM, three replicates.
FIG. 5. Levels of apoptosis observed in the presence of the indicated compounds over time at two different concentrations (the curves for control and 5 μM are the same as in FIG. 4). Apoptosis was measured as activation of the executor caspases 3/7, using a fluorescent indicator. The open symbols in orange represent 5 μM, solid symbols indicate 25 μM.
FIG. 6. Comparison of the time course of the induction of apoptosis (orange) and of cell death (blue) in the presence of 25 μM compound 8. […]
To test the activity of the compounds on biological systems, we chose the pancreatic cancer cell line Colo 357, which expresses Kv1.3 and is sensitive to cell-permeant Kv1.3 inhibitors (Zaccagnino et al., Oncotarget 8, 38276-38293, 2017). Growth, cell viability and apoptosis were all determined by high content imaging in a Incucyte (Sartorius) live cell imaging device. […]
Cell death in 3D culture was also attributable to induction of apoptosis. […] The fluorescence of the caspase 3/7 reporter was detectable soon after addition of the treatment and was markedly more intense than the values measured in the control treatment (DMSO).

KV1.5 = KV1.5 (Homo sapiens, UniProt P22460); details: cited from earlier work
[5] = test system: HEK293 and K562 cells, and T and B cells from healthy subjects; details: cited from earlier work
KV1.3 = details: cited from earlier work
[6] = test system: human SAOS2, mouse B16F10 melanoma, and human B-CLL; details: cited from earlier work
cancer cells = details: in vitro and in vivo studies; cited from earlier work
[7] = test system: human pancreatic Colo357 tumors; details: mice; cited from earlier work
[8] = test system: orthotopic melanoma B16F10; details: cited from earlier work; for B16F10 tumor volume: orthotopic mouse B16F10 melanoma model
[9] = test system: Jurkat leukemia T cells, mouse melanoma B16F10 cells, human PDAC cells (Bx-PC3, PANC-1, As-PC1, CAPAN-1); details: B16F10, Bx-PC3, PANC-1, As-PC1, CAPAN-1 cells; cited from earlier work
[10] = cited from earlier work
[11] = test system: KV1.1, KV1.2, KV1.5 and KV3.1; details: cited from earlier work
[12] = test system: orthotopic PDAC xenograft; details: SCID beige mouse; cited from earlier work
[13] = test system: pancreatic ductal adenocarcinoma (PDAC) cells; details: cited from earlier work

## COc1ccccc1C(=O)NC[C@]1(c2ccsc2)CC[C@H](OC(=O)NCCC[P+](c2ccccc2)(c2ccccc2)c2ccccc2)CC1.[I-] [Example 2, (3-(((((1S,4S)-4-((2-Methoxybenzamido)methyl)-4-(thiophen-3-yl)cyclohexyl)oxy)carbonyl)amino)propyl)triphenylphosphonium iodide]
[1]
  Cell death (cytotoxicity screening): most intense effect
[2]
  Dose dependence of the intensity of apoptosis induction: increased in a dose-dependent manner
  Apoptosis induction (caspases 3/7 activation): strong increase in apoptotic cells
Colo 357 tumor spheroids [3]
  Cytotoxicity in tumor spheroids: significant levels of cytotoxicity

## COc1ccccc1C(=O)NCC1(c2ccsc2)CCC(OC(=O)NCCCC[P+](c2ccccc2)(c2ccccc2)c2ccccc2)CC1.[I-] [Example 8, (4-(((((1S,4S)-4-((2-Methoxybenzamido)methyl)-4-(thiophen-3-yl)cyclohexyl)oxy)carbonyl)amino)butyl)triphenylphosphonium iodide]
Colo 357 tumor spheroids [4]
  Time course of apoptosis compared with cytotoxicity in spheroids: initiation of the decline in apoptosis signal corresponds to the start of the increase in the number of dead cells
[1]
  Cell death (cytotoxicity screening): most intense effect
[2]
  Dose dependence of the intensity of apoptosis induction: increased in a dose-dependent manner
  Apoptosis induction (caspases 3/7 activation): strong increase in apoptotic cells
Colo 357 tumor spheroids [3]
  Cytotoxicity in tumor spheroids: significant levels of cytotoxicity

## O=c1ccc2c(OCCCCOc3ccccc3)c3ccoc3cc2o1 [PAP-1, 4-(4-phenoxybutoxy)-7H-furo[3,2-g]chromen-7-one]
KV1.5
  Selectivity over Kv1.5: […]
[5]
  Effects on healthy cells: did not show similar effects
KV1.3
  IC50: […]
[6]
  Apoptosis in cancer cells: induced apoptosis

## O=c1ccc2c(OCCCCOc3ccc(CCC[P+](c4ccccc4)(c4ccccc4)c4ccccc4)cc3)c3ccoc3cc2o1.[I-] [PAPTP, (3-(4-(4-((7-oxo-7H-furo[3,2-g]chromen-4-yl)oxy)butoxy)phenyl)propyl)triphenylphosphonium iodide]
Cancer cells
  Effectiveness compared with the parent PAP-1: much more effective than the parent PAP-1
[7]
  Colo357 tumors: significant reductions
[8]; co-applied with cisplatin
  Tumor volume reduction: more than 90%
[8]
  B16F10 tumor volume: greatly reduce
[9]
  Cell death: induced cell death

## O=C(NCCC[P+](c1ccccc1)(c1ccccc1)c1ccccc1)Oc1ccc(OCCCCOc2c3ccoc3cc3oc(=O)ccc23)cc1.[I-] [PCARBTP, (3-(((4-(4-((7-oxo-7H-furo[3,2-g]chromen-4-yl)oxy)butoxy)phenoxy)carbonyl)amino)propyl)triphenylphosphonium iodide]
[10]; Dulbecco's modified Eagle medium
  Hydrolysis in culture medium: slow hydrolysis
[10]; physiological conditions, mouse blood
  Hydrolysis in mouse blood: hydrolyzed to PAPOH
Cancer cells
  Effectiveness compared with the parent PAP-1: much more effective than the parent PAP-1
[7]
  Colo357 tumors: significant reductions
[8]
  B16F10 tumor volume: greatly reduce
[9]
  Cell death: induced cell death

## O=C(OCCC[P+](c1ccccc1)(c1ccccc1)c1ccccc1)Oc1ccc(OCCCCOc2c3ccoc3cc3oc(=O)ccc23)cc1.[I-] [PCTP, (3-(((4-(4-((7-oxo-7H-furo[3,2-g]chromen-4-yl)oxy)butoxy)phenoxy)carbonyl)oxy)propyl)triphenylphosphonium iodide]
Cancer cells
  Effectiveness compared with the parent PAP-1: much more effective than the parent PAP-1
[9]
  Cell death: induced cell death

## O=c1ccc2c(OCCCCc3ccccc3)c3ccoc3cc2o1 [Psora-4, 4-(4-Phenylbutoxy)-7H-furo[3,2-g][1]benzopyran-7-one]
[5]
  Effects on healthy cells: did not show similar effects
KV1.3
  IC50: […]
[6]
  Apoptosis in cancer cells: induced apoptosis

## CC(C)N=c1cc2n(-c3ccc(Cl)cc3)c3ccccc3nc-2cc1Nc1ccc(Cl)cc1 [clofazimine, N,5-bis(4-chlorophenyl)-3-propan-2-yliminophenazin-2-amine]
[5]
  Effects on healthy cells: did not show similar effects
[11]
  Selectivity over KV1.1, KV1.2, KV1.5 and KV3.1: tenfold
[12]
  Primary tumor weight: significantly reduced
[13]
  Apoptosis in PDAC cells: induced apoptosis
KV1.3
  IC50: 300 nM
[8]; orthotopic melanoma B16F10 line, mouse
  Reduction of tumor size: 90%
[6]
  Apoptosis in cancer cells: induced apoptosis
